Laboratory results: patent publication EP1100539B1, “COMBINATION OF ACTIVE SUBSTANCES, ESPECIALLY FOR THE PROPHYLAXIS AND THERAPY OF ISCHAEMIC ORGANIC LESIONS AND REPERFUSION SYNDROMES” (Vascular Biotech GmbH, priority 1998, dated 2000)
Where “and” joins values, the source holds several entries; their conditions need not be identical. Equal entries are not always repeated. Entries after “also recorded” stand apart in the source; their conditions may differ.

Tests used:
[1] = test system: Meerschweinchenherzen; assay: Working guinea pig heart, ischaemia/reperfusion with activated PMN and platelets (Versuchsgruppe 1); design: species or system Meerschweinchen; settings: for Herzleistung [% der initialen Leistung] / Interstitielles Volumen / Koronarfluß [% des Basalflusses]: flavone derivative 3*10^-5 M, individual hearts
Protocol: Pathogene Wirkung von gleichzeitig aktivierten PMN und Thrombozyten im ischämischen Herzen. Als Studienobjekt dienten arbeitende, also Volumen gegen bestimmte Drucke auswerfende Meerschweinchenherzen. […] Thrombin, FMLP ([…]-Formyl-[…]) und […] Interaktion der Blutzellen mit dem koronaren Endothel bei diesen Versuchen. Tabelle 3: ^i Als Blutzellpräparate wurden eingesetzt: a) hochreine PMN (1-2*10^5/ml), […] Vorinkubation mit 100 μM […]) bzw. […] von PMN und TASS (bzw. T) in jeweils analogen Konzentrationen. Tabelle 3 gibt die unter […] bei […] von PMN und Thrombozyten (TASS = […] Vorinkubation mit 100μM […] = nicht […].

[2] = test system: venolären Endothelzellen (VEC); assay: Time-lapse video microscopy of venular endothelial cell layers, opening/sealing of intercellular gaps (Versuchsgruppe 3); assay type: cell-based; settings: for Abdichtung der Interzellularspalten: in presence of activated PMN and Thrombozyten (Abb. 3), 50 µM each
Protocol: In vitro kultivierte Schichten aus venolären Endothelzellen (VEC) werden unter Einsatz von Zeitraffervideomikrokinematographie (siehe Abb. 5) mit speziell entwickelter Methodik direkt beobachtet. Die durch aktivierte Thrombozyten (Anwendung von 1 U/ml Thrombin) und aktivierte PMN (Anwendung von 1 µM FMLP) induzierte Öffnung von Endothelbarrieren (= Öffnung der Interzellularspalten der Endothelzellen) kann so im Zeitablauf dokumentiert werden. Als Beispiel dient eine Serie von Aufnahmen, die den direkten Angriff der Blutzellen dokumentiert (Abb. 3) bzw. eine analoge Serie, die mit dem Überstand der aktivierten Blutzellen durchgeführt wurde (Abb. 4).
Die durch die Blutzellen zunächst geweiteten Interzellularspalten werden durch die Wirkstoffe wieder abgedichtet.
Abbildung 5 zeigt den experimentellen Aufbau für die videomikroskopische Beobachtung zellulärer Interaktionen an Endotheloberflächen: A-Gewebekulturmikroskop, B-Spezialinkubator mit Steuereinheit C, D-Gaszylinder mit 5% CO2, E-Waschflasche, F-Videokamera, G-Kamera-Kontroll-Einheit, H-Videorecorder, I-Monitor, J-Fotoapparat.

[3] = test system: venoläre Endothelzellen; assay: Hydraulic conductivity (LP) across confluent venular endothelial cell layers on porous filters (Versuchsgruppe 2 / Beispiel 12); assay type: cell-based, Meerschweinchen
From the text: Als Studienobjekt dienten bis zur Konfluenz etablierte Schichten venolärer Endothelzellen auf porösen Filtern, die in einer speziell entwickelten Apparatur zur Trennung zweier Flüssigkeitskompartimente eingesetzt wurden. So konnte z. B. der druckabhängige Wassertransport (hydraulische Konduktivität = LP mit der Dimension 10^-5 cm / s / cm H2O) über die gezüchteten Endothelschichten unter dem Einfluß von Blutzellen unter entzündlichen Bedingungen studiert werden.
Details der Versuchsanordnung gehen aus den Abb. 1 und 2 hervor. Abbildung 1 zeigt ein wiederverwendbares, autoklavierbares Filterspannsystem bestehend aus (1) dem Formteil aus Polycarbonat, (2) dem Polycarbonatfilter, (3) dem stählernen Spannring und (4) dem Haltering aus Polycarbonat. Die Darstellung rechts neben dem Stapel der Einzelteile zeigt einen Querschnitt und eine Aufsicht des zusammengefügten Systems. Abbildung 2 zeigt eine Versuchsapparatur zur Messung hydraulischer Konduktivitäten von konfluenten Zellschichten, (1) Basisteil mit Magnetrührer (1a), (2) basales Flüssigkeitskompartiment mit Stopfen (2a) bzw. Zugang für Eppendorfpipetten (2b), (3) Steigrohr, (4) oberes Flüssigkeitskompartiment, zwischen den Flüssigkeitskompartimenten (2) und (4) liegt der ausgespannte Filter, (5), (6), (7) peristaltische Pumpen, (8) Vorratsgefäß für die Konstanthaltung des hydrostatischen Niveaus im oberen Flüssigkeitskompartiment, (9) Sammelgefäß für filtriertes Volumen.
Der Nachweis der Wirkung von Verbindungen als Hemmstoffe der Kontraktilität von venolären Endothelzellen erfolgt analog zur in Versuchsgruppe 2 charakterisierten Vorgehensweise unter Verwendung der dort beschriebenen Versuchsanordnung (vgl. Abb. 1 und 2) und wird hier am Beispiel des Apigenins (chemische Formel siehe Tabelle 1) dargestellt.
Venoläre Endothelzellen werden unter Verwendung einer speziellen, nachstehend beschriebenen Technik isoliert und auf porösen Polycarbonatfiltern (Porendurchmesser 0,4 µm, Fa. Nucleopore, Pleasanton, USA) unter Verwendung ebenfalls nachstehend beschriebener Zellkulturtechniken bis zur Konfluenz kultiviert. Diese endothelbeschichteten Filter werden in einer speziellen Apparatur (siehe Abb. 1 und 2) zur Trennung zweier Flüssigkeitskompartimente eingesetzt. Als Meßgröße für die Kontraktilität der venolären Endothelzellen dient der druckabhängige Wassertransport (hydraulische Konduktivität = LP mit der Dimension 10^-5 cm / s / cm H2O) über die gezüchteten Endothelschichten, der bei Kontraktion der Endothelzellen durch Übergang von der pflastersteinartigen zur sphärischen Form (vgl. Versuchsgruppe 3 mit Abb. 3 und 4) und die damit einhergehende Öffnung von Interzellularspalten zunimmt
Eine Lösung von Plasmasalzen (=physiologische Salzlösung, Zusammensetzung siehe unten) mit Zusatz von 0,1% Albumin und von aus peripherem Blut wie nachfolgend beschrieben isolierten Granulozyten (=PMN, Konzentration 10^5/ml) und Thrombozyten (10^6/ml) wird mit 1 µM FMLP und 1 U/ml Thrombin versetzt. Durch Zentrifugieren (10 min bei 1000 g) wird der Überstand gewonnen und in das obere Flüssigkeitskompartiment der Versuchsapparatur eingebracht. Dadurch erhöht sich - als Ausdruck der Kontraktion der venoiären Endothelzellen - die hydraulische Konduktivität gegenüber dem Ausgangswert (Nr. 1 in Tabelle 4) um ca. 1600 % (Nr. 10 in Tabelle 4).
Zur Dissoziation des Myokardgewebes werden zunächst mit Krebs-Henseleitlösung (KHL) nach Langendorff bei 120 mmHg 10 min perfundierte Meerschweinchenherzen 35 min lang mit einem in KHL angesetzten Proteasegemisch perfundiert (42 mg Kollagenase D + 60 mg Dispase II + 5 mg Trypsin + 58 mg Serumalbumin aus Rinderblut, gelöst in 42 ml Ca^2+-freier KHL; 1 ml/min; Kollagenase und Dispase: Boehringer, Mannheim, Trypsin: 1:250, Serva, Heidelberg). […]

[4] = test system: ischämische Herzschäden; settings: oral, initial 100 mg, then 20-40 mg/d; 17187 Patienten; cited from earlier work
[5] = FMLP-activated PMN alone (Nr. 4-6), 50 µM
[6] = IPA + PMN (10^5/ml) + Thrombin (1 U/ml) + 1 µM FMLP, substance 50 µM, control without substance 5,40, baseline 1,80
[7] = IPA + supernatant of thrombin-activated Thrombozyten (10^6/ml) and FMLP-activated PMN (10^5/ml), substance 50 µM, control without substance 31,2, baseline 1,80
[8] = PMN+T (platelets not preincubated with Acetylsalicylsäure)
[9] = PMN+TASS (platelets preincubated 1 h with 100 µM Acetylsalicylsäure, washed)

CC(=O)Oc1ccccc1C(=O)O [Acetylsalicylsäure, reference compound]
Verschlechterung der postischämischen Funktionsdaten (ΔP/Δt; interstitielles Volumen; Koronarfluß) ([1]; platelets preincubated with 100 µM Acetylsalicylsäure, no flavonoid): lediglich teilweisen Abschwächung | Abdichtung der Interzellularspalten [2]: nicht zur Abdichtung der Interzellularspalten | Effect on increase of LP [3, 5]: keinen Effekt | LP [10^-5 cm/s/cm H2O] [3, 6]: 5,78 ±0,68 10^-5 cm/s/cm H2O | LP [10^-5 cm/s/cm H2O] [3, 7]: 28,2 ± 1,7 10^-5 cm/s/cm H2O | ischämische Herzschäden [4]: signifikant

O=c1cc(-c2ccc(O)cc2)oc2cc(O)cc(O)c12 [Apigenin]
Herzleistung [% der initialen Leistung] [1, 8]: 52 % der initialen Leistung and 67 % der initialen Leistung and 74 % der initialen Leistung and 73 % der initialen Leistung and 64 % der initialen Leistung and 71 % der initialen Leistung | Interstitielles Volumen [1, 8]: 142 µL/g and 201 µL/g and 177 µL/g and 166 µL/g and 130 µL/g | Koronarfluß [% des Basalflusses] [1, 8]: 56 % des Basalflusses (2×) and 49 % des Basalflusses and 53 % des Basalflusses and 59 % des Basalflusses and 65 % des Basalflusses | Herzleistung [% der initialen Leistung] [1, 9]: 94 % der initialen Leistung and 96 % der initialen Leistung and 89 % der initialen Leistung and 88 % der initialen Leistung and 97 % der initialen Leistung | Interstitielles Volumen [1, 9]: 95 µL/g and 120 µL/g and 105 µL/g and 102 µL/g and 97 µL/g and 91 µL/g | Koronarfluß [% des Basalflusses] [1, 9]: 102 % des Basalflusses and 107 % des Basalflusses and 98 % des Basalflusses and 95 % des Basalflusses and 91 % des Basalflusses and 109 % des Basalflusses | Verschlechterung der postischämischen Funktionsdaten (ΔP/Δt; interstitielles Volumen; Koronarfluß) ([1]; acute application of the flavonoid alone): abgeschwächt | Verschlechterung der postischämischen Funktionsdaten (ΔP/Δt; interstitielles Volumen; Koronarfluß) ([1]; flavonoid applied in combination with Acetylsalicylsäure): vollständig aufgehoben | Effect on increase of LP [3, 5]: keine Erhöhung von LP | LP [10^-5 cm/s/cm H2O] [3, 6]: 1,75 ± 0,06 10^-5 cm/s/cm H2O | LP [10^-5 cm/s/cm H2O] ([3]; IPA + PMN (10^5/ml) + Thrombozyten (10^6/ml) + Thrombin (1 U/ml) + 1 µM FMLP, each substance 50 µM, control without substance 33,7, baseline 1,80): 25,5 ± 4,1 10^-5 cm/s/cm H2O | LP [10^-5 cm/s/cm H2O] [3, 7]: 1,90 ± 0,07 10^-5 cm/s/cm H2O | Effect on increase of LP ([3]; simultaneously activated Thrombozyten and PMN (Nr. 7-9), 50 µM each): hemmt diesen Effekt nur schwach | Kontraktion der venolären Endothelzellen (hydraulische Konduktivität) ([3]; supernatant of activated PMN and Thrombozyten (Nr. 10, 11), 50 µM): fast vollständig gehemmt

C[C@@H]1O[C@@H](OC[C@H]2O[C@@H](Oc3c(-c4ccc(OCCO)c(OCCO)c4)oc4cc(OCCO)cc(O)c4c3=O)[C@H](O)[C@@H](O)[C@@H]2O)[C@H](O)[C@H](O)[C@H]1O [Trihydroxyethylrutosid]
Abdichtung der Interzellularspalten [2]: nicht zur Abdichtung der Interzellularspalten | Abdichtung der Spalten / Reparatur der Endothelschicht ([2]; supernatant of activated PMN and Thrombozyten, blood cells absent (Abb. 4), without Acetylsalicylsäure): fast vollständige Reparatur der Endothelschicht; also recorded: Endothel-reparativen Effekt
